The values that follow are results of earlier work, collected in patent publication US20230405024A1 (priority 2020, published 2023).

For the substance cannabidiol [CBD], the solubility in water result was “insoluble”.
